Experimental data published in patent US10695360B2, “Adiponectin secretion enhancer” (WASHINGTON UNIVERSITY, priority 2017, dated 2020).

Assays:
[1] = system: ANKO mice (adipose tissue-specific NAMPT knockout mice); assay: NAD+ precursor rescue experiments in ANKO mice (Example 5); type: in vivo, mouse
Excerpt: To determine whether metabolic derangements depend on the defects in NAD+ biosynthesis in ANKO mice, we treated mice with NMN, a key NAD+ intermediate and the product of the NAMPT reaction (FIG. 6A). In the diagram, “NA” represents nicotinic acid, “NaMN” represents nicotinic acid mononucleotide, “NIC” represents nicotinamide, “NR” represents nicotinamide riboside, “Tip” represents tryptophan, and “NAPRT” represents nicotinate phosphoribosyl transferase. NMN is a product of an enzyme reaction mediated by NAMPT and is converted directly to NAD+. Nicotinic acid is a precursor in the NAPRT-dependent NAD+ biosynthesis pathway.
ANKO mice were generated by using adiponectin-Cre transgenic mice and floxed-Nampt mice as previously described (Noon et al., 2015). Mice were maintained on a standard chow diet (LabDiet 5053; LabDiet) ad libitum. For RSG rescue experiments, ANKO mice received a chow containing RSG (#71740; Cayman Chemical) at the approximate dose of 20 mg/kg body Weight/day soon after weaning for up to 7 weeks. For NAD+ precursor rescue experiments, we administered NMN (#44500900; Oriental Yeast) and NA (#72309; Sigma-Aldrich) in drinking water, at the approximate dose of 500 mg/kg of body weight, to ANKO mice soon after weaning for up to 2 months.
More specifically, drinking water containing NMN (500 mg/kg body weight/day) was administered to the female ANKO mice and metabolic parameters were investigated after administering NMN for 4 to 6 weeks. In the graphs, “NMN-ANKO” indicates the results for NMN-treated ANKO mice, “ANKO” indicates the results for NMN-untreated ANKO mice of the same age as the NMN-treated ANKO mice, and “flox/flox” indicates the results for the control mice (female Nampt-floxed (flox/flox) mice). All values in the graphs represent the mean ±SE. In the graphs, “*” indicates p<0.05, “**” indicates p<0.01, and “***” indicates p<0.001 (NMN-treated ANKO mice vs. NMN-untreated ANKO mice, Student's t-test). In addition, in the graphs, “a” indicates p<0.05 (NMN-treated ANKO mice vs. NMN-untreated ANKO mice, ANOVA), and “b” indicates p<0.05 (control mice vs. NMN-untreated ANKO mice, ANOVA).
FIG. 6B indicates the results of measuring […] levels in adipose tissue for female ANKO mice administered NMN for 4 to 6 weeks (500 mg/kg body weight day) and non-dosed female ANKO mice of the same age (per group, n=5 to 7). NAD+ levels were measured with an HPLC (high-performance liquid chromatography) system using a Supelco LC-18-T column (#58970-U, Sigma-Aldrich Corp.) (Yoon, et al., Cell Metabolism, 2015, Vol. 21, p. 706-717). FIG. 6C indicates the results of having carried out an insulin tolerance test (ITT), consisting of administering insulin and measuring blood glucose concentration over time, on NMN-treated mice following administration of NMN for 4 weeks (n=7) and non-dosed ANKO mice for which age has been aligned at 2 to 3 weeks (n=14), and control mice (n=8). The left graph in FIG. 6C indicates the results for changes in glucose concentration over time (insulin tolerance curve), while the graph on the right side of FIG. 6C indicates the results for the area under the curve (AUC) of glucose concentration.
The results for measuring plasma insulin concentrations for NMN-treated ANKO mice, NMN-untreated ANKO mice and control mice are shown in FIG. 6D, while the results of measuring plasma free fatty acid (FFA) concentrations are shown in FIG. 6E (per group, n=5 to 11). In addition, visceral adipose tissue was respectively sampled from NMN-treated ANKO mice and NMN-untreated ANKO mice followed by measurement of the levels of PPARγ (Ser273), CDK5 and nuclear protein acetylated lysine in the visceral adipose tissue (per group, n=3 to 4). […]

adiponectin [2] = assay: Serum adiponectin levels in mice intraperitoneally administered β-NMN (Example 3); type: in vivo, mouse; conditions: C57BL/6J mice, females, intraperitoneal 625 and 1250 mg/kg/day, day 4
Protocol: A solution prepared by dissolving β-NMN (Oriental Yeast Co., Ltd.) in PBS (phosphate-buffered saline) was administered intraperitoneally in accordance with the method of Dr. Sinclair (Gomes, et al., Cell, 2013, Vol. 155, p. 1624-1638) and the method of Dr. Imai (Yoshino, et al., Cell Metabolism, 2011, Vol. 14, p. 528-536).
(§1) Measurement of adiponectin levels in the following experiments was carried out in the manner indicated below.
(§2) Anti-mouse adiponectin polyclonal antibody (Oriental Yeast Co., Ltd.) was adjusted to 10 μg/mL with PBS for use as primary antibody solution. […]
(§3) Moreover, 100 μl of substrate solution (Becton Dickinson & Co., TMB Substrate Reagent Set, #555214) were added to each well, and the plate covered with sealing film was incubated for 15 minutes at 25° C. After stopping the reaction by adding 100 μL of 2 N sulfuric acid to each well, the absorbance of each well was measured at a primary wavelength of 450 nm and a secondary wavelength of 570 nm with a plate reader (FLOUstar Optima, BMG LabTech Ltd.). Furthermore, since the mouse adiponectin polyclonal antibody used in ELISA cross-reacts with rat adiponectin, levels of rat adiponectin were measured as mouse adiponectin by using standard mouse adiponectin. […]
(§4) Mouse serum adiponectin levels were measured on day 4 from the start of administration. […]

adiponectin [3] = assay: Serum adiponectin levels in rats orally administered β-NMN (Example 1); type: in vivo, rat; conditions: CD rats, males and females, oral 250 and 1000 mg/kg/day, day 28
Protocol: (§5) A solution prepared by dissolving β-NMN (Oriental Yeast Co., Ltd.) in water for injection (Otsuka Pharmaceutical Co., Ltd.) or PBS (phosphate-buffered saline) was orally administered by gavage using a metal gastric tube (Fuchigami Kikai Co., Ltd.) attached to a polypropylene disposable syringe (Terumo Corp.).
as §1, §2, §3
Rat serum adiponectin levels were measured on day 28 from the start of administration.

[4] = system: adipocytes differentiated from mouse fibroblast 3T3-L1 cells; assay: Adiponectin secreted from adipocytes differentiated from 3T3-L1 cells stimulated with β-NMN (Example 4); type: cell-based; conditions: 3T3-L1 adipocytes cultured with β-NMN for 7 days vs without
Protocol: 3T3-L1 cells were differentiated into adipocytes and then the cells were stimulated with β-NMN to measure the secreted amount of adiponectin. The 3T3-L1 cells were differentiated into adipocytes in the manner described below. First, 3T3-L1 cells were seeded in a 24-well plate at 5×10^4 cells/well followed by culturing for 2 to 3 days in culture medium (DMEM containing 10% fetal bovine serum (FBS)) at 37° C. in 5% CO2. Next, the culture medium was replaced with a first differentiation-inducing medium (containing 10 μM dexamethasone, 5 μM 3-isobutyl-1-methylxanthine (IBMX) and 10 μg/mL of insulin) followed by culturing for 2 days at 37° C. in 5% CO2. The medium was replaced with the second differentiation-inducing medium (containing 10 μg/mL of insulin) followed by culturing for 2 days at 37° C. in 5% CO2. Subsequently, the medium was twice replaced with culture medium every 2 to 3 days to differentiate the 3T3-L1 cells into mature adipocytes. 3T3-L1 adipocytes were cultured in the presence (“NMN addition”) or absence (“NMN non-addition”) of β-NMN for 7 days. The amount of adiponectin secreted into the culture supernatant was measured. The results of measurement of adiponectin levels in the culture supernatant are shown in. FIG. 4. […]

adiponectin [5] = assay: Serum adiponectin levels in mice orally administered β-NMN (Example 2); type: in vivo, mouse; conditions: C57BL/6N mice, females, oral 125 and 625 mg/kg/day, day 4
Protocol: as §5, §1, §2, §3, §4

[6] = ANKO mice, NMN 500 mg/kg body weight/day, 4 to 6 weeks
[7] = NMN-treated vs untreated ANKO mice
[8] = visceral adipose tissue, NMN-treated vs untreated ANKO mice

## NC(=O)c1ccc[n+]([C@@H]2O[C@H](COP(=O)([O-])O)C(O)[C@H]2O)c1 (stereo partly drawn) [β-NMN, Nicotinamide mononucleotide]
[1]; ANKO mice, NMN 500 mg/kg body weight/day for 4 weeks, vs age-matched untreated ANKO mice
  insulin sensitivity (insulin tolerance test): improved
[1]; [6]
  plasma FFA concentrations: normalized
  plasma insulin concentrations: normalized
[1]; [7]
  plasma concentrations of adiponectin: restored
  plasma concentrations of adipsin: restored
[1]; female ANKO mice, NMN 500 mg/kg body weight/day in drinking water, 4 to 6 weeks
  adipose tissue NAD+ concentrations: significantly increased
[1]; [8]
  Adipose tissue gene expression of adiponectin and adipsin: restored
  global nuclear lysine acetylation: reduced
  phosphorylation of CDK5 in VAT: decreased
  phosphorylation of PPARγ (Ser273) in VAT: decreased
[1]; β-NMN 500 mg/kg body weight/day in drinking water, 4 to 6 weeks
  metabolic disorders of ANKO mice: improved
Adiponectin [2]
  serum adiponectin levels: increased serum adiponectin levels dose-dependently
Adiponectin [3]
  serum adiponectin levels: increased serum adiponectin levels dose-dependently
[4]
  adiponectin levels in the culture supernatant: higher
Adiponectin [5]
  serum adiponectin levels: increased serum adiponectin levels dose-dependently

## O=C(O)c1cccnc1 [nicotinic acid, reference compound]
[1]; nicotinic acid 500 mg/kg body weight/day, 5- to 7-week administration
  metabolic disorders of ANKO mice: improved
